How the values were obtained:
Format in all cases: biochemical
[1] = target: T1, human Yes1 enzyme (Homo sapiens, UniProt P07947); assay: Yes1 enzyme inhibitory activity (time-resolved fluorometry, biotinylated peptide phosphorylation); settings: biotinylated peptide phosphorylation, read-out: YES_IC50
T1 construct: made in house
How it was run: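 Inhibition was expressed against a compound-free control to give IC50, using TR-FRET read-out (Eu-cryptate anti-pTyr antibody, streptavidin-XL665).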

[2] = target: T2, human Src enzyme (Homo sapiens, UniProt P12931); assay: Src enzyme inhibitory activity (time-resolved fluorometry, biotinylated peptide phosphorylation); settings: biotinylated peptide phosphorylation, read-out: SRC_IC50
T2 construct: purchased Carna Biosciences, Inc. 08-173
How it was run: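 Compounds were tested for blocking tyrosine phosphorylation of a biotinylated peptide substrate by recombinant human Src. Phosphorylated product was quantified by time-resolved fluorometry using europium cryptate and XL665 conjugates, and IC50 was calculated against the compound-free control.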

[3] = target: T3, human Lck enzyme (Homo sapiens, UniProt P06239); assay: Lck enzyme inhibitory activity (time-resolved fluorometry, biotinylated peptide phosphorylation); settings: biotinylated peptide phosphorylation, read-out: LCK_IC50
T3 construct: purchased Carna Biosciences, Inc. 08-170
How it was run: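 Readout pairs a europium cryptate-labelled anti-phosphotyrosine antibody with XL665-streptavidin, measured by time-resolved fluorescence. IC50 derived from percent inhibition against untreated controls.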

T3 sequence (P06239 whole entry): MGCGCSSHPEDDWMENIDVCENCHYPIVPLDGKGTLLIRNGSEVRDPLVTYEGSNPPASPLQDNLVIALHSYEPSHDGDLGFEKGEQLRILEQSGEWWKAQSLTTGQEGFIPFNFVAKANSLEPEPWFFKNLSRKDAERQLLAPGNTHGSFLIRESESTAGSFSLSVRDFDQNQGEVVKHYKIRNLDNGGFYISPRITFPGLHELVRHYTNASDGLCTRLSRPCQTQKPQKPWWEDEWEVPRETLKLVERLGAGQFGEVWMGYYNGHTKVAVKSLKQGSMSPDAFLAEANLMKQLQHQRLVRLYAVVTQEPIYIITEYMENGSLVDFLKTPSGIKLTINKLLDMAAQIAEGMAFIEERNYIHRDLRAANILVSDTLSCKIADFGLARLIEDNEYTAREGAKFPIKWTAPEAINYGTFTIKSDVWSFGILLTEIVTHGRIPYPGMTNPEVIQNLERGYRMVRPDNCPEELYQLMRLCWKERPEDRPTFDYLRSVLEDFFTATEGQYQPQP
T1 sequence (P07947 whole entry): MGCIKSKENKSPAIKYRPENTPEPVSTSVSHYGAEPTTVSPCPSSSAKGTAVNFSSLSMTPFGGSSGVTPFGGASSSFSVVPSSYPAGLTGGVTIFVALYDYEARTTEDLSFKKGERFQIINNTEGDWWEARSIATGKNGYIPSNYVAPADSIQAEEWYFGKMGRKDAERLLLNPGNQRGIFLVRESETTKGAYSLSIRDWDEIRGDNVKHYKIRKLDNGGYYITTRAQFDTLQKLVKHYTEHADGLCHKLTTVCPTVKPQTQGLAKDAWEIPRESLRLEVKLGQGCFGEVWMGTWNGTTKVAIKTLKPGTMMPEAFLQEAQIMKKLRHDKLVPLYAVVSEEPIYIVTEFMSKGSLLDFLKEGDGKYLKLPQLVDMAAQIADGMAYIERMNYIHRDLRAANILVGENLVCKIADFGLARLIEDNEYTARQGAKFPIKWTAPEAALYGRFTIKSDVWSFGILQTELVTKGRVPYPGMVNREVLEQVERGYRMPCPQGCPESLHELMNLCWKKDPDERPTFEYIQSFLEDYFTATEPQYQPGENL
T2 sequence (P12931 whole entry): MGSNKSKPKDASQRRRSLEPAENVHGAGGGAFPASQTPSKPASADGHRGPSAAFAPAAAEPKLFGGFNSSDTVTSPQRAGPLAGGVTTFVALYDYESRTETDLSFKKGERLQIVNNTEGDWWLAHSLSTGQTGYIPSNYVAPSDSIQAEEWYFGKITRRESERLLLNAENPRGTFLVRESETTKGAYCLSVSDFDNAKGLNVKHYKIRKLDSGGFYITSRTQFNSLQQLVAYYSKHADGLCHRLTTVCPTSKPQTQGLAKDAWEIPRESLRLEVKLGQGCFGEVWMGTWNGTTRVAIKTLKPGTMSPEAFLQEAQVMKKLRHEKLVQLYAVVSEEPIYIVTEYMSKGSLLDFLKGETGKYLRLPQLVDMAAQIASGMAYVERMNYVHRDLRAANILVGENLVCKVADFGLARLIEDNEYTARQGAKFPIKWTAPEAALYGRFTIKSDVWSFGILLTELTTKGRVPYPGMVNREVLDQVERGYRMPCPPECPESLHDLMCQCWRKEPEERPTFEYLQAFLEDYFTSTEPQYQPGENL

IC50 [1] [nM]	IC50 [2] [nM]	IC50 [3] [nM]	Structure (SMILES)
0.72	9.8	0.96	Cc1cc(Oc2c(F)cccc2F)ncc1-n1ncc(C(=O)c2cc3cc(F)c(N4CCCS4(=O)=O)cc3[nH]2)c1N [Example 4-9-002, [5-amino-1-[6-(2,6-difluorophenoxy)-4-methylpyridin-3-yl]pyrazol-4-yl]-[6-(1,1-dioxo-1,2-thiazolidin-2-yl)-5-fluoro-1H-indol-2-yl]methanone]
2.1	86	18	CCN(CC)C(=O)CS(=O)(=O)Nc1cc2[nH]c(C(=O)c3cnn(-c4cnc(Oc5ccccc5F)cc4C)c3N)cc2cc1F [Example 4-10-001, 2-{{2-{5-amino-1-[6-(2-fluorophenoxy)-4-methylpyridin-3-yl]pyrazole-4-carbonyl}-5-fluoro-1H-indol-6-yl}sulfamoyl}-N,N-diethylacetamide]
0.77	27	11	Cc1cc(Oc2ccccc2F)ccc1-n1ncc(C(=O)c2cc3cc(F)c(NS(=O)(=O)CC(=O)NC(C)C)cc3[nH]2)c1N [Example 4-10-002, 2-[[2-[5-amino-1-[4-(2-fluorophenoxy)-2-methylphenyl]pyrazole-4-carbonyl]-5-fluoro-1H-indol-6-yl]sulfamoyl]-N-propan-2-ylacetamide]
0.75	26	4.9	Cc1cc(Oc2ccccc2F)ccc1-n1ncc(C(=O)c2cc3cc(F)c(NS(=O)(=O)CC(=O)N4CCN(C(C)C)CC4)cc3[nH]2)c1N [Example 4-10-003, N-[2-[5-amino-1-[4-(2-fluorophenoxy)-2-methylphenyl]pyrazole-4-carbonyl]-5-fluoro-1H-indol-6-yl]-2-oxo-2-(4-propan-2-ylpiperazin-1-yl)ethanesulfonamide 2,2,2-trifluoroacetate]
0.53	12	8.3	Cc1cc(Oc2ccccc2F)ccc1-n1ncc(C(=O)c2cc3cc(F)c(NS(=O)(=O)CC(=O)N4CCOCC4)cc3[nH]2)c1N [Example 4-10-004, N-[2-[5-amino-1-[4-(2-fluorophenoxy)-2-methylphenyl]pyrazole-4-carbonyl]-5-fluoro-1H-indol-6-yl]-2-morpholin-4-yl-2-oxoethanesulfonamide]
2.8	58	16	Cc1cc(Oc2ccccc2F)ncc1-n1ncc(C(=O)c2cc3cc(F)c(NS(=O)(=O)CC(=O)N4CCCC4)cc3[nH]2)c1N [Example 4-10-005, N-[2-[5-amino-1-[6-(2-fluorophenoxy)-4-methylpyridin-3-yl]pyrazole-4-carbonyl]-5-fluoro-1H-indol-6-yl]-2-oxo-2-pyrrolidin-1-ylethanesulfonamide]
1	37	19	Cc1cc(Oc2ccccc2F)ncc1-n1ncc(C(=O)c2cc3cc(F)c(NS(=O)(=O)CC(=O)N4CCOCC4)cc3[nH]2)c1N [Example 4-10-006, N-[2-[5-amino-1-[6-(2-fluorophenoxy)-4-methylpyridin-3-yl]pyrazole-4-carbonyl]-5-fluoro-1H-indol-6-yl]-2-morpholin-4-yl-2-oxoethanesulfonamide]
0.48	13	8.5	Cc1cc2cc(C(=O)c3cnn(-c4ccc(Oc5ccccc5F)cc4C)c3N)[nH]c2cc1NS(=O)(=O)CC(=O)N1CCOCC1 [Example 4-10-007, N-{2-{5-amino-1-[4-(2-fluorophenoxy)-2-methylphenyl]pyrazole-4-carbonyl}-5-methyl-1H-indol-6-yl}-2-morpholin-4-yl-2-oxoethanesulfonamide]
2	54	9.6	Cc1cc2cc(C(=O)c3cnn(-c4ccc(Oc5ccccc5F)cc4C)c3N)[nH]c2cc1NS(=O)(=O)CC(=O)NC(C)C [Example 4-10-008, 2-[[2-[5-amino-1-[4-(2-fluorophenoxy)-2-methylphenyl]pyrazole-4-carbonyl]-5-methyl-1H-indol-6-yl]sulfamoyl]-N-propan-2-ylacetamide]
2.7	33	19	Cc1cc2cc(C(=O)c3cnn(-c4c(C)cc(Oc5ccccc5F)cc4F)c3N)[nH]c2cc1NS(=O)(=O)CC(=O)N1CCOCC1 [Example 4-10-009, N-[2-[5-amino-1-[2-fluoro-4-(2-fluorophenoxy)-6-methylphenyl]pyrazole-4-carbonyl]-5-methyl-1H-indol-6-yl]-2-morpholin-4-yl-2-oxoethanesulfonamide]
1.3	26	7.1	Cc1cc2cc(C(=O)c3cnn(-c4cnc(Oc5c(F)cccc5F)cc4C)c3N)[nH]c2cc1NS(=O)(=O)CC(=O)N1CCOCC1 [Example 4-10-010, N-[2-[5-amino-1-[6-(2,6-difluorophenoxy)-4-methylpyridin-3-yl]pyrazole-4-carbonyl]-5-methyl-1H-indol-6-yl]-2-morpholin-4-yl-2-oxoethanesulfonamide]
0.64	25	3.8	COc1cc2cc(C(=O)c3cnn(-c4ccc(Oc5ccccc5F)cc4C)c3N)[nH]c2cc1NS(=O)(=O)CC(=O)NC(C)C [Example 4-10-011, 2-[[2-[5-amino-1-[4-(2-fluorophenoxy)-2-methylphenyl]pyrazole-4-carbonyl]-5-methoxy-1H-indol-6-yl]sulfamoyl]-N-propan-2-ylacetamide]
0.3	9.8	5.1	COc1cc2cc(C(=O)c3cnn(-c4ccc(Oc5ccccc5F)cc4C)c3N)[nH]c2cc1NS(=O)(=O)CC(=O)N1CCOCC1 [Example 4-10-012, N-[2-[5-amino-1-[4-(2-fluorophenoxy)-2-methylphenyl]pyrazole-4-carbonyl]-5-methoxy-1H-indol-6-yl]-2-morpholin-4-yl-2-oxoethanesulfonamide]

Continued, compound first:

Structure (SMILES)	IC50 [1] [nM]	IC50 [2] [nM]	IC50 [3] [nM]
Cc1cc(Oc2ccccc2Cl)cc(F)c1-n1ncc(C(=O)c2cc3cc(F)c(NS(=O)(=O)C4CC4)cc3[nH]2)c1N [Example 4-7-010, N-[2-[5-amino-1-[4-(2-chlorophenoxy)-2-fluoro-6-methylphenyl]pyrazole-4-carbonyl]-5-fluoro-1H-indol-6-yl]cyclopropanesulfonamide]	9	280	100
Cc1cc(Oc2cccc(Cl)c2)cc(F)c1-n1ncc(C(=O)c2cc3cc(F)c(NS(C)(=O)=O)cc3[nH]2)c1N [Example 4-7-011, N-[2-[5-amino-1-[4-(3-chlorophenoxy)-2-fluoro-6-methylphenyl]pyrazole-4-carbonyl]-5-fluoro-1H-indol-6-yl]methanesulfonamide]	14	200	97
Cc1cc(Oc2cccc(Cl)c2)cc(F)c1-n1ncc(C(=O)c2cc3cc(F)c(NS(=O)(=O)C4CC4)cc3[nH]2)c1N [Example 4-7-012, N-[2-[5-amino-1-[4-(3-chlorophenoxy)-2-fluoro-6-methylphenyl]pyrazole-4-carbonyl]-5-fluoro-1H-indol-6-yl]cyclopropanesulfonamide]	14	330	160
Cc1cc(Oc2ccccc2)cc(F)c1-n1ncc(C(=O)c2cc3cc(F)c(NS(C)(=O)=O)cc3[nH]2)c1N [Example 4-7-013, N-[2-[5-amino-1-(2-fluoro-6-methyl-4-phenoxyphenyl)pyrazole-4-carbonyl]-5-fluoro-1H-indol-6-yl]methanesulfonamide]	3	58	26
Cc1cc(Oc2ccccc2)cc(F)c1-n1ncc(C(=O)c2cc3cc(F)c(NS(=O)(=O)C4CC4)cc3[nH]2)c1N [Example 4-7-014, N-[2-[5-amino-1-(2-fluoro-6-methyl-4-phenoxyphenyl)pyrazole-4-carbonyl]-5-fluoro-1H-indol-6-yl]cyclopropanesulfonamide]	4.9	130	73
Cc1cc(Oc2ccccc2Cl)ncc1-n1ncc(C(=O)c2cc3cc(F)c(NS(=O)(=O)C4CC4)cc3[nH]2)c1N [Example 4-7-015, N-[2-[5-amino-1-[6-(2-chlorophenoxy)-4-methylpyridin-3-yl]pyrazole-4-carbonyl]-5-fluoro-1H-indol-6-yl]cyclopropanesulfonamide]	0.92	110	17
Cc1cc(Oc2cccc(Cl)c2)ncc1-n1ncc(C(=O)c2cc3cc(F)c(NS(=O)(=O)C4CC4)cc3[nH]2)c1N [Example 4-7-016, N-[2-[5-amino-1-[6-(3-chlorophenoxy)-4-methylpyridin-3-yl]pyrazole-4-carbonyl]-5-fluoro-1H-indol-6-yl]cyclopropanesulfonamide]	4.6	210	110
Cc1cc(Oc2ccccc2F)ccc1-n1ncc(C(=O)c2cc3cc(F)c(NS(=O)(=O)C4(CC(O)CO)CC4)cc3[nH]2)c1N (stereo not drawn) [Example 4-8-001, N-{2-{5-amino-1-[4-(2-fluorophenoxy)-2-methylphenyl]pyrazole-4-carbonyl}-5-fluoro-1H-indol-6-yl}-1-(2,3-dihydroxypropyl)cyclopropane-1-sulfonamide]	1.1	31	14
Cc1cc(Oc2ccccc2F)ncc1-n1ncc(C(=O)c2cc3cc(F)c(N4CCCS4(=O)=O)cc3[nH]2)c1N [Example 4-9-001, {5-amino-1-[6-(2-fluorophenoxy)-4-methylpyridin-3-yl]pyrazol-4-yl}-[6-(1,1-dioxo-1,2-thiazolidin-2-yl)-5-fluoro-1H-indol-2-yl]methanone]	0.46	13	2.5
